Here are results for four compounds from patent publication US10501462B2, “Pyrrolo[3,2-c]pyridine-6-amino derivatives” (CANCER RESEARCH TECHNOLOGY LIMITED, priority 2015, dated 2019).

Data set [1] deals with HCT116 cells. Description: MTT cell toxicity assay. Type of data set: cell-based. The following applies: Homo sapiens, HCT-116, 72 h incubation. The protocol:
Cell proliferation assays were carried out using a colorimetric 3-(4,5-dimethylthiazol-2-yl)-2,5-diphenyltetrazolium bromide (MTT) assay (Sigma). 1.5×10^3 HCT116 cells, purchased from ATCC, were plated in 96-well plates at in 100 μL of culture medium in triplicates. Next day three fold dilutions of the compounds to be tested were made in culture medium so that, when diluted, the final concentration in the wells ranged from 0 to 10 μM. 25 μL of compounds dilutions in the medium was added to 100 μL of cells and incubated at 37° C. and 5% CO2 for 72 h. Cells were then incubated with 40 μL of 5 mg/mL MTT reagent at 37° C. for 3 h. The medium was carefully removed and crystals dissolved in 100 μL of DMSO. The absorbance was measured at 570 nm with the Wallac VICTOR2 1420 Multilabel Counter (PerkinElmer) and analysis performed to calculate the GI50 using GraphPad PRISM.

The target in data set [2] is T1, full length Mps1 (Homo sapiens, UniProt P33981).
T1 construct: black 384-well low volume plates containing full length Mps1 (12.5 nM or 3 nM)
T1 sequence (P33981 1-857): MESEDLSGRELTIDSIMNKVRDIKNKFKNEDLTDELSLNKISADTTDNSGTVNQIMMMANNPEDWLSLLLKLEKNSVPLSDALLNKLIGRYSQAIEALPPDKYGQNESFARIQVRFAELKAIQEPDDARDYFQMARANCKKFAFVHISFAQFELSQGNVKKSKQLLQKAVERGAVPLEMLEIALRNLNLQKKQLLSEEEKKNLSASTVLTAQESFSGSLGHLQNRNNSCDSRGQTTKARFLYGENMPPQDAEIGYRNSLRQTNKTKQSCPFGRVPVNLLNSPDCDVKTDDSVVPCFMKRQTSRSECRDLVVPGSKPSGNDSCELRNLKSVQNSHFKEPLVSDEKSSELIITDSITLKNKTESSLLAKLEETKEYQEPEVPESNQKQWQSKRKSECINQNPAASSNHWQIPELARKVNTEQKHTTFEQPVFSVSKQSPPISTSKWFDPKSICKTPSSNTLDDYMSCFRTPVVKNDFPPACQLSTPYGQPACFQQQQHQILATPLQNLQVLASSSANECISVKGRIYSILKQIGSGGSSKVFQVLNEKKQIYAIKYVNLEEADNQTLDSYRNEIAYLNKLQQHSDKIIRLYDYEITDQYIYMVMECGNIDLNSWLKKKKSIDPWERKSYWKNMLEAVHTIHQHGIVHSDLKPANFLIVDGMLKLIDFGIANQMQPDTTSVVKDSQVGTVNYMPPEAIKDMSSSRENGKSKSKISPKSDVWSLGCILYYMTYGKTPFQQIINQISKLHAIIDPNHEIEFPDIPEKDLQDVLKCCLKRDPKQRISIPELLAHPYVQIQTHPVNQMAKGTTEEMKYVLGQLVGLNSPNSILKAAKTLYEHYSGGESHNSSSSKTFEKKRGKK
Description: Measurement of inhibition of Mps1 kinase (Caliper EZ reader, H236 peptide). In kind it is biochemical. The note with it: full length Mps1, 60 min at room temperature. The protocol:
The enzyme reaction (total volume 10 μl) was carried out in black 384-well low volume plates containing full length Mps1 (12.5 nM or 3 nM), fluorescent labelled peptide [known as H236, which has the sequence: 5FAM-[…]-CONH2] (5 μM), ATP ([…]), either DMSO (1% v/v) or the test compound (in the range 0.25 nM-100 μM in 1% DMSO) and assay buffer (50 mM HEPES (pH 7.0), 0.02% NaN3, 0.01% BSA, 0.1 mM Orthovandate, […], […], Roche protease inhibitor). The reaction was carried out for 60 min at room temperature and stopped by the addition of buffer (10 μl) containing 20 mM EDTA, 0.05% (v/v) Brij-35, in 0.1M HEPES-buffered saline (Free acid, Sigma, UK). The plate was read on a Caliper EZ reader II (Caliper Life Sciences).
The % inhibition of the compounds is calculated relative to the means of selected control wells. […] The % inhibitions at each concentration are then fitted to a 4 parameter logistic fit: y=(a+((b−a)/(1+((c/x^d)))) where a=asym min, b=asym max, c=IC50 and d=hill coefficient

Data set [3] can be described thus: Pharmacokinetic profile in mice (Mouse PK). In kind it is in vivo. The note with it: female, BALB/c, whole blood, 5 mg/kg, i.v. and p.o. at 5 mg/kg.
The nature of data set [4]: Human liver microsomal stability (HLM assay). In kind it is in vitro ADME. The note with it: human liver microsomes 1 mg/mL, 10 μmol/L test compound, 37° C. As for the experimental part: The human liver microsomal stability of the compounds of the invention was tested using the following procedure:
Mixed gender pooled human liver microsomes were purchased from Tebu-bio (Peterborough, U.K.). Samples contained final concentrations of 1 mg/mL microsomal protein, 3 mmol/L MgCl2, 1 mmol/L NADPH, 2.5 mmol/L, UDP-glucuronic acid, and 10 mmol/L phosphate buffer (pH 7.4) (all purchased from Sigma Aldrich, Gilingham, U.K). Reactions, at 37° C., were started by addition of 10 μmol/L test compound and were terminated at 0, 15 and 30 minutes by the addition of 3 volumes of ice-cold methanol containing internal standard. Samples were centrifuged at 2,800×g for 30 minutes at 4° C. and the supernatants analyzed. Control incubations were prepared as above with omission of cofactors. […]

Where [5] appears, read: read-out: GI50 in the MTT assay.
[6] abbreviates: read-out: MTT assay HCT116 GI50.

Read-outs that look alike come from different tables or passages of the source. A value given as a limit tells only on which side of the number the result lay.

As for `COc1cc(-c2cnnn2C)ccc1Nc1cc2c(cn1)cc(-c1cnn(C)c1)n2C(=O)OC(C)C` [Example 1, Isopropyl 6-(2-methoxy-4-(1-methyl-1H-1,2,3-triazol-5-yl)phenylamino)-2-(1-methyl-1H-pyrazol-4-yl)-1H-pyrrolo[3,2-c]pyridine-1-carboxylate], the GI50 in data set [1] (setting [5]) is at most 150 nM; in data set [1] (setting [6]), 59.4 nM. For the same compound, inhibition in data set [2] was half-maximal at 1.2 nM (IC50). In data set [3], the clearance was under 3.5 mL/min/kg.

On to `Cn1cc(C2=[N+](C(=O)OC(C)(C)C)c3cc(Nc4ccc(-c5nncn5C)cc4Cl)ncc3C2)cn1` [Comparator 1, reference compound], for which the GI50 in data set [1] (setting [6]) amounted to 360 nM. The clearance in data set [3] was 5 mL/min/kg. Further, the “HLM Assay (% of parent compound degraded at 30 minutes)” value in data set [4] was found to be 22.1%.

Consider `COc1cc(-c2nnnn2C)ccc1Nc1cc2c(cn1)cc(-c1cnn(C)c1)n2C(=O)OC(C)C` [Example 2, Isopropyl 6-(2-methoxy-4-(1-methyl-1H-tetrazol-5-yl)phenylamino)-2-(1-methyl-1H-pyrazol-4-yl)-1H-pyrrolo[3,2-c]pyridine-1-carboxylate], for which the GI50 is at most 150 nM in data set [1] (setting [5]) and 104 nM in data set [1] (setting [6]). The IC50 in data set [2] was found to be 2.8 nM.

On to `Cn1cc(C2=[N+](C(=O)OC(C)(C)C)c3cc(Nc4ccc(-c5ccnn5C)cc4Cl)ncc3C2)cn1` [Comparator 3, reference compound], for which, in data set [1] (setting [6]), the concentration for 50% growth inhibition (GI50) amounted to 548 nM. The “HLM Assay (% of parent compound degraded at 30 minutes)” value in data set [4] turned out to be 39%.

A word on the GI50: it is the concentration giving 50% growth inhibition. One may read the IC50 as the point on the concentration scale where inhibition reaches its midpoint. Lower therefore signals inhibition by little substance.
